# Test results taken from paper PMC5510653 (ACS chemical neuroscience, 2016).
# What was measured:
# [1] = tested on: MPTP-treated parkinsonian monkeys; assay: Motor behavior in MPTP-treated parkinsonian monkeys; format: in vivo, Rhesus monkeys
# [2] = tested on: electrical cardiac activities; assay: Effects of ML218 on cardiac function; format: in vivo, Rhesus monkeys; conditions: ketamine sedation
# [3] = tested on: MPTP-treated parkinsonian monkey; assay: ECoG recordings and scoring of state of arousal and movements; format: in vivo, Rhesus monkey; conditions: ML218 3 mg/kg s.c., one monkey
# [4] = tested on: MDCK-MDR1 (MDCK-Pgp) cells
# [5] = rhesus monkey
# [6] = rhesus monkey, in vivo, sc, 10 mg/kg
# [7] = tested on: haloperidol-induced catalepsy; conditions: haloperidol-induced catalepsy model in rats ref 38; cited from earlier work
# [8] = tested on: TH immunolabeling; assay: Post-mortem TH immunoperoxidase staining of striatum; format: in vivo, Rhesus monkeys; conditions: 7 MPTP-treated animals vs mean of 3 non-treated monkeys, mean ± SEM
# [9] = tested on: slow-wave sleep; conditions: mice ref 39, 40; cited from earlier work
smiles,measurement,setting,value
"N[C@@H](Cc1ccc(O)c(O)c1)C(=O)O [L-DOPA, reference compound]","antiparkinsonian effects (number of movements, activity counts)","[1]; L-DOPA 5, 10, 15, 20 mg/kg i.m. in combination with benserazide","strong, dose-dependent antiparkinsonian effects"
CC(C)(C)CCN1C[C@@H]2C(CNC(=O)c3cc(Cl)cc(Cl)c3)[C@@H]2C1 (stereo partly shown) [ML218],chronotropic effect (R-R interval),"[2]; 30 mg/kg s.c., ECG two hours after injection, 3 animals",minor negative chronotropic effects
same,"effects on the other ECG parameters studied (PR, RT intervals)",[2]; 10 and 30 mg/kg s.c.,no consistent effects
same,effect of adding ML218 on L-DOPA-mediated responses,[1]; ML218 3 mg/kg s.c. 60 min before L-DOPA 10 mg/kg i.m. plus 2.5 mg/kg benserazide,did not alter the L-DOPA-mediated responses
same,activity counts compared to baseline,"[1]; ML218 10 mg/kg s.c., p=0.002",reduced
same,number of movements compared to baseline,"[1]; ML218 10 mg/kg s.c., p=0.006",reduced
same,"antiparkinsonian effects (number of movements, activity counts)","[1]; ML218 1, 10 and 30 mg/kg s.c., observed from 1 hour after injection",no antiparkinsonian effects
same,mean number of movements per 5 minute of observation,"[3]; 2 hours of observation, vehicle 51.07 ± 6.42, p=0.016",25.39 ± 4.52
same,sleep ratio,"[3]; within 120 minutes, vehicle 0.09 ± 0.06, p=0.008",0.54 ± 0.06
same,Papp AB,[4],2.6e^− 6 cm/sec
same,Fu (fraction of unbound compound in plasma),[5],0.09
same,CSF Tmax,[6],1 to 2 h
same,anti-cataleptic properties,[7],anti-cataleptic properties
CN1CC=C(c2ccccc2)CC1 [MPTP],reduction of TH immunolabeling in the caudate,[8],89 ± 3%
same,reduction of TH immunolabeling in the post-commissural putamen,[8],87 ± 3%
C[C@@H](NC(=O)Cc1ccc(C2CC2)cc1)c1ccc(OCC(F)(F)F)cn1 [TTA-A2],effect on slow-wave sleep,[9],promotes slow-wave sleep
